Assay results from patent US12780800B1, “Triazole-pyridinyl substituted azacyclohexyl acetic acid compounds as LPA receptor antagonists” (Viva Star Biosciences Limited, priority 2021, dated 2022).

Biological target: T1, LPA1 (Homo sapiens, UniProt Q92633)
T1 construct: ProLink (PK) beta-galactosidase enzyme-fragment tag; host or cells: CHO-K1
Assay: LPA1 calcium flux assay (LPA1 functional antagonist assay)
Assay type: cell-based
Conditions: PathHunter CHO-K1 EDG2 β-Arrestin cell line; calcium indicator dye; stimulated with EC80 concentration of LPA; FLIPR Tetra
How it was run: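 The LPA1 antagonist readout was intracellular calcium flux, and IC50 values were calculated from it. Plates stood 30 min at RT after compound addition. Cells, grown overnight, had first taken up calcium dye over 45 min at 37 °C.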

T1 sequence (Q92633 whole entry, the tested form may be a part): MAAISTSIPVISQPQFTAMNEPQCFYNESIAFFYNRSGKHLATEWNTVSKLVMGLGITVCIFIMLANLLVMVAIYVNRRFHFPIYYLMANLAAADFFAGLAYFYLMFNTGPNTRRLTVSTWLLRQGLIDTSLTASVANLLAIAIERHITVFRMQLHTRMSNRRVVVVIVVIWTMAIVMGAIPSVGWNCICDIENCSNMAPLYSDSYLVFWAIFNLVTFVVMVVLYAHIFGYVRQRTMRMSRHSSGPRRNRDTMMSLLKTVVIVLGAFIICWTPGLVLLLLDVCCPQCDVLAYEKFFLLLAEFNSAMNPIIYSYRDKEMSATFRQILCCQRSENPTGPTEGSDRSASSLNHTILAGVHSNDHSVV

| SMILES | IC50 |
| --- | --- |
| CCOc1ccc(=O)n(Cc2c(-c3ccc(N4C[C@@H](CC(=O)O)CC(F)(F)C4)c(CC)n3)nnn2C)c1 [Example 26, (S)-2-(1-(6-(5-((5-ethoxy-2-oxopyridin-1(2H)-yl)methyl)-1-methyl-1H-1,2,3-triazol-4-yl)-2-ethylpyridin-3-yl)-5,5-difluoropiperidin-3-yl)acetic acid] | 100 to 500 nM |
| CCc1nc(-c2nnn(C)c2COc2cc(-n3nccn3)ncn2)ccc1N1CCC[C@H](CC(=O)O)C1 [Example 98, (R)-2-(1-(6-(5-(((6-(2H-1,2,3-triazol-2-yl)pyrimidin-4-yl)oxy)methyl)-1-methyl-1H-1,2,3-triazol-4-yl)-2-ethylpyridin-3-yl)piperidin-3-yl)acetic acid] | 100 to 500 nM |
| Cn1nnc(-c2ccc(N3CCC[C@H](CC(=O)O)C3)c(C(F)F)n2)c1Cn1nncc1CC1CC1 [Example 168, (R)-2-(1-(6-(5-((5-(cyclopropylmethyl)-1H-1,2,3-triazol-1-yl)methyl)-1-methyl-1H-1,2,3-triazol-4-yl)-2-(difluoromethyl)pyridin-3-yl)piperidin-3-yl)acetic acid] | < 100 nM |
| CCc1nc(-c2nnn(C)c2COc2cnn(CC(C)C)n2)ccc1N1C[C@@H](CC(=O)O)CC(F)(F)C1 [Example 129, (S)-2-(1-(2-ethyl-6-(5-(((2-isobutyl-2H-1,2,3-triazol-4-yl)oxy)methyl)-1-methyl-1H-1,2,3-triazol-4-yl)pyridin-3-yl)-5,5-difluoropiperidin-3-yl)acetic acid] | < 100 nM |
| CCc1nc(-c2nnn(C)c2COc2cc(-n3ccnn3)ncn2)ccc1N1CCC[C@H](CC(=O)O)C1 [Example 97, 2-[(3R)-1-{2-ethyl-6-[1-methyl-5-({[6-(1H-1,2,3-triazol-1-yl)pyrimidin-4-yl]oxy}methyl)-1H-1,2,3-triazol-4-yl]pyridin-3-yl}piperidin-3-yl]acetic acid] | 100 to 500 nM |
| CCc1nc(-c2nnn(C)c2COc2nccc(C3CCC3)n2)ccc1N1CC(CC(=O)O)CCC1=O (single isomer, unassigned) [Example 92, (S) or (R)-2-(1-(6-(5-(((4-cyclobutylpyrimidin-2-yl)oxy)methyl)-1-methyl-1H-1,2,3-triazol-4-yl)-2-ethylpyridin-3-yl)-6-oxopiperidin-3-yl)acetic acid] | > 5000 nM |
| CCCc1ccn(Cc2c(-c3ccc(N4C[C@@H](CC(=O)O)CC(F)(F)C4)c(CC)n3)nnn2C)c(=O)c1 [Example 8, (S)-2-(1-(2-ethyl-6-(1-methyl-5-((2-oxo-4-propylpyridin-1(2H)-yl)methyl)-1 H-1,2,3-triazol-4-yl)pyridin-3-yl)-5,5-difluoropiperidin-3-yl)acetic acid] | > 5000 nM |
| CCc1nc(-c2nnn(C)c2Cn2ccc(CC3CC3)cc2=O)ccc1N1C[C@@H](CC(=O)O)CC(F)(F)C1 [Example 9, (S)-2-(1-(6-(5-((4-(cyclopropyImethyl)-2-oxopyridin-1(2H)-yl)methyl)-1-methyl-1H-1,2,3-triazol-4-yl)-2-ethylpyridin-3-yl)-5,5-difluoropiperidin-3-yl)acetic acid] | > 5000 nM |
| CCCc1ccc(=O)n(Cc2c(-c3cnc(N4C[C@H](CC(=O)O)CC(F)(F)C4)cn3)nnn2C)c1 (stereo in doubt) [Example 56, (R)-2-(5,5-difluoro-1-(5-(1-methyl-5-((2-oxo-5-propylpyridin-1(2H)-yl)methyl)-1H-1,2,3-triazol-4-yl)pyrazin-2-yl)piperidin-3-yl)acetic acid] | > 5000 nM |
| CCCN(C)C(=O)OCc1c(-c2ccc(CN3CC(C(=O)O)CC(F)(F)C3)c(CC)n2)nnn1C (single isomer, unassigned) [Example 165, 1-((2-ethyl-6-(1-methyl-5-(((methyl(propyl)carbamoyl)oxy)methyl)-1H-1,2,3-triazol-4-yl)pyridin-3-yl)methyl)-5,5-difluoropiperidine-3-carboxylic acid] | 100 to 500 nM |
| CCCc1ccc(=O)n(Cc2c(-c3cc(F)c(N4CCCC(CC(=O)O)C4)c(CC)n3)nnn2C)c1 (centres unmarked) [Example 48, 2-(1-(2-ethyl-4-fluoro-6-(1-methyl-5-((2-oxo-5-propylpyridin-1(2H)-yl)methyl)-1H-1,2,3-triazol-4-yl)pyridin-3-yl)piperidin-3-yl)acetic acid] | > 5000 nM |
| CCc1nc(-c2nnn(C)c2COc2nccc(C3CCC3)n2)ccc1N1CCC[C@H](CC(=O)O)C1 [Example 74, (R)-2-(1-(6-(5-(((4-cyclobutylpyrimidin-2-yl)oxy)methyl)-1-methyl-11H-1,2,3-triazol-4-yl)-2-ethylpyridin-3-yl)piperidin-3-yl)acetic acid] | < 100 nM |
| CCCc1ccc(=O)n(Cc2c(-c3ccc(N4C[C@H](F)C[C@@H](CC(=O)O)C4)c(CC)n3)nnn2C)c1 (single isomer, unassigned) [Example 46, 2-((3R,5R) or (33,5S)-1-(2-ethyl-6-(1-methyl-5-((2-oxo-5-propylpyridin-1(2H)-yl)methyl)-1H-1,2,3-triazol-4-yl)pyridin-3-yl)-5-fluoropiperidin-3-yl)acetic acid] | > 5000 nM |
| CCCc1ccc(=O)n(Cc2c(-c3ccc(N4C[C@@H](CC(=O)O)CC(F)(F)C4)c(C)n3)nnn2C)n1 [Example 34, (S)-2-(5,5-difluoro-1-(2-methyl-6-(1-methyl-5-((6-oxo-3-propylpyridazin-1(6H)-yl)methyl)-1H-1,2,3-triazol-4-yl)pyridin-3-yl)piperidin-3-yl)acetic acid] | 500 to 5000 nM |
| CCCc1ccc(=O)n(Cc2c(-c3ccc(N4CCC[C@@H](CC(=O)O)C4)c(CC)n3)nnn2C)c1 [Example 23, (S)-2-(1-(2-ethyl-6-(1-methyl-5-((2-oxo-5-propylpyridin-1(2H)-yl)methyl)-1H-1,2,3-triazol-4-yl)pyridin-3-yl)piperidin-3-yl)acetic acid] | > 5000 nM |
| Cc1nc(-c2nnn(C)c2Cn2ccn(CC(C)C)c2=O)ccc1N1C[C@@H](CC(=O)O)CC(F)(F)C1 [Example 71, (S)-2-(5,5-difluoro-1-(6-(5-((3-isobutyl-2-oxo-2,3-dihydro-1H-imidazol-1-yl)methyl)-1-methyl-1H-1,2,3-triazol-4-yl)-2-methylpyridin-3-yl)piperidin-3-yl)acetic acid] | > 5000 nM |
| CCCN(C)C(=O)OCc1c(-c2ccc(N3CCC[C@H](CC(=O)O)C3)c(C)n2)nnn1C [Example 144, (R)-2-(1-(2-methyl-6-(1-methyl-5-(((methyl(propyl)carbamoyl)oxy)methyl)-1H-1,2,3-triazol-4-yl)pyridin-3-yl)piperidin-3-yl)acetic acid] | 500 to 5000 nM |
| CCc1nc(-c2cnn(C)c2COc2noc(CC3CC3)n2)ncc1N1C[C@@H](CC(=O)O)CC(F)(F)C1 [Example 118, (S)-2-(1-(2-(5-(((5-(cyclopropylmethyl)-1,2,4-oxadiazol-3-yl)oxy)methyl)-1-methyl-1H-pyrazol-4-yl)-4-ethylpyrimidin-5-yl)-5,5-difluoropiperidin-3-yl)acetic acid] | > 5000 nM |
| Cc1nc(-c2nnn(C)c2CN2CCN(CC3CC3)C2=O)ccc1N1CC(CC(=O)O)CC(F)(F)C1 (stereo in doubt) [Example 70, (R)-2-(1-(6-(5-((3-(cyclopropylmethyl)-2-oxoimidazolidin-1-yl)methyl)-1-methyl-1H-1,2,3-triazol-4-yl)-2-methylpyridin-3-yl)-5,5-difluoropiperidin-3-yl)acetic acid] | > 5000 nM |
| CCc1nc(-c2cnn(C)c2Cn2nncc2CC2CC2)ncc1N1C[C@@H](CC(=O)O)CC(F)(F)C1 [Example 134, (S)-2-(1-(2-(5-((5-(cyclopropylmethyl)-1H-1,2,3-triazol-1-yl)methyl)-1-methyl-1H-pyrazol-4-yl)-4-ethylpyrimidin-5-yl)-5,5-difluoropiperidin-3-yl)acetic acid] | 100 to 500 nM |
| CCc1nc(-c2nnn(C)c2Cn2cc(CC(C)C)ccc2=O)ccc1N1C[C@@H](CC(=O)O)CC(F)(F)C1 [Example 12, (S)-2-(1-(2-ethyl-6-(5-((5-isobutyl-2-oxopyridin-1(2H)-yl)methyl)-l-methyl-1H-1,2,3-triazol-4-yl)pyridin-3-yl)-5,5-difluoropiperidin-3-y)acetic acid] | < 100 nM |
| Cc1nc(-c2nnn(C)c2COC(=O)N(C)CC2CC2)ccc1N1C[C@@H](CC(=O)O)CC(F)(F)C1 [Example 140, (S)-2-(1-(6-(5-((((cyclopropylmethyl)(methyl)carbamoyl)oxy)methyl)-1-methyl-1H-1,2,3-triazol-4-yl)-2-methylpyridin-3-yl)-5,5-difluoropiperidin-3-yl)acetic acid] | 100 to 500 nM |
| CCc1nc(-c2nnn(C)c2Cn2cc(C(C)C)ccc2=O)ccc1N1C[C@@H](CC(=O)O)CC(F)(F)C1 [Example 16, (S)-2-(1-(2-ethyl-6-(5-((5-isopropyl-2-oxopyridin-1(2H)-yl)methyl)-1-methyl-1H-1,2,3-triazol-4-yl)pyridin-3-yl)-5,5-difluoropiperidin-3-yl)acetic acid] | < 100 nM |
| CCc1nc(-c2nnn(C)c2COc2nccc(C3CCC3)n2)ccc1N1CCCC(CC(=O)O)C1=O (single isomer, unassigned) [Example 94, (S) or (R)-2-(1-(6-(5-(((4-cyclobutylpyrimidin-2-yl)oxy)methyl)-1-methyl-1H-1,2,3-triazol-4-yl)-2-ethylpyridin-3-yl)-2-oxopiperidin-3-yl)acetic acid] | 500 to 5000 nM |
| CCCc1ccc(=O)n(Cc2c(-c3ccc(N4CCO[C@H](CC(=O)O)C4)c(CC)n3)nnn2C)c1 [Example 172, 2-[(2R)-4-(2-ethyl-6-{1-methyl-5-[(2-oxo-5-propyl-1,2-dihydropyridin-1-yl)methyl]-1H-1,2,3-triazol-4-yl}pyridin-3-yl)morpholin-2-yl]acetic acid] | 500 to 5000 nM |
| CCc1nc(-c2nnn(C)c2COc2nccc(C3CCC3)n2)ccc1CN1CC(C(=O)O)CC(F)(F)C1 (single isomer, unassigned) [Example 152, (S) or (R)-1-((6-(5-(((4-cyclobutylpyrimidin-2-yl)oxy)methyl)-1-methyl-1H-1,2,3-triazol-4-yl)-2-ethylpyridin-3-yl)methyl)-5,5-difluoropiperidine-3-carboxylic acid] | < 100 nM |
